Laboratory results as given in patent publication US11026972B2, “Methods for generating macrophages with enhanced cancer phagocytosis” (Georgia State University Research Foundation, Inc., priority 2016, dated 2021).

Tests used:
[1] = system: PEMs; experiment: Activated PEM phagocytosis toward RBCs in the presence of antibodies/inhibitors against phagocytic receptors; type: cell-based, mouse; conditions: antibodies 10 μg/mL; BLT1 5 μM; laminarin 100 μg/mL; heparin 40 U/mL
Description: FIGS. 6A-6D include data related to our investigation of possible phagocytic receptors on macrophages for phagocytosing healthy self-cells. […] PEMs, with or without (ctl.) treatment with LPS, IL-17, IL-6, or PMA, were labeled for cell surface LRP1 and CRT followed by FACS. […] Activated PEM phagocytosis toward RBCs was tested in the presence of antibodies against SR-A, Fc receptor Cd16/32 (10 μg/mL of each), inhibitors against SR-B (BLT1, 5 μM), dectin (laminarin, 100 μg/mL), complement (heparin, 40 U/mL), and antibody against Cd11b (10 μg/mL). […] Data presented in each panel represent at least three independent experiments with n≥4, if applicable.
Ex vivo macrophage phagocytosis: Mouse spleens were harvested and minced in cold HBSS followed by passing through nylon meshes. The spleen cells in suspensions were collected by centrifugation followed by washing. After lysis of RBC, splenocytes were plated in cell culture dishes in DMEM with 10% FBS and cultured for 2 h followed by removal of non-adherent cells. The adherent cells, ˜70% being macrophages as determined by anti-F4/80 staining, were tested for phagocytosis. For phagocytosis of RBC or other tissue cells, targeted cells were labeled with CFSE prior to addition into the macrophage-containing wells. Macrophages and target cells, at a ratio of 1:5-10 for RBC or 1:1-2 for other cells, were co-incubated for 30 min at 37° C. followed by gently washing. Macrophage phagocytosis of target cells was then analyzed by fluorescence microscopy and/or by FACS. […] Alternatively, the freshly isolated splenocytes in suspension were incubated with CFSE-labeled RBC and other phagocytic targets for 30 min at 37° C. Macrophage phagocytosis was then determined by FACS after labeling macrophages with anti-F4/80. To test phagocytosis of apoptotic cells, B16 cells were irradiated by UV for 150 seconds at 50 J/m^2 strength. Apoptosis was analyzed at 2, 4, 6, 8 and 18 h post UV irradiation by labeling of the cells with anti-phosphatidylserine (PS) antibody (data not shown) or FITC-conjugated annexin V (data not shown). Cells that were confirmed to be apoptotic were trypsinized, labeled with CFSE, and then co-incubated with macrophages for 30 min at 37° C. After gentle washing, phagocytosis was analyzed by fluorescence microscopy and/or FACS. To test phagocytosis of bacteria and the fungal product zymosan, AlexaFluor-conjugated E.coli strain […] (2 μl suspension, ˜2 μg) or zymosan bioparticles (1 μl suspension, ˜2 μg) (both from Invitrogen) were incubated with macrophages for 30 min followed by washing and analyses. Similar procedures were performed to test phagocytosis of macrophages from various sources. […]

[2] = system: SIRPα^−/− and CD47^−/− mice; experiment: Acute anemia and splenomegaly in mice deficient of CD47-SIRPα-mediated inhibition under inflammatory conditions; type: in vivo, mouse; conditions: SIRPα^−/− and CD47^−/− mice; zymosan 3 times every other day; IL-6 2×10 μg/kg i.v.; LPS 0.25 mg/kg i.p.; CFA s.c.
Text: FIGS. 1A-1K illustrate our assessment of acute anemia in mice deficient of CD47-SIRPα-mediated inhibition under inflammatory conditions. FIG. 1A includes a schematic drawing of a wild type (WT) and targeted allele of SIRPα (“SIRPα”) and data related to the generation of SIRPα “knock out” (KO) mice. […] Western blot (WB) analysis confirmed the depletion of SIRPα (˜120 kDa) protein in bone marrow leukocytes from SIRPα^−/− mice. FIG. 1B includes a photograph of intestinal tissue and a line graph charting the change in body weight of mice in which colitis had been induced by treatment with 1% or 2% DSS. […] FIGS. 1C and 1D include data related to acute anemia and splenomegaly developed in SIRPα^−/− mice with colitis. WT mice and SIRPα^−/− mice treated with DSS (2% DSS for WT and 1% DSS for SIRPα^−/−) for 10 days were analyzed for the presence of […] (FIG. 1C) and the content of hemoglobin in peripheral blood (FIG. 1D). FIG. 1E includes a panel of photomicrographs in which hematoxylin and eosin (H&E) was used to stain sections of spleens from WT and SIRPα^−/− mice treated with 2% and 1% DSS for 10 days. The bar graph of FIG. 1E illustrates the hemoglobin content in the spleens of WT and SIRPα^−/− mice treated with water or DSS. FIG. 1F is a pair of line graphs showing the time course over which anemia developed in SIRPα^−/− mice when colitis was induced with DSS and the levels of IL-17 in the serum over that same period of time. FIG. 1G is a diagram showing that IL-17 neutralization ameliorates anemia and splenomegaly in SIRPα^−/− mice with colitis. An anti-IL-17 antibody (10 μg, i.v.) was given on days 6 and 8 (arrows) during DSS-induction of colitis. FIG. 1H is a diagram showing that IL-17-containing colitic serum induces acute anemia in SIRPα^−/− mice. Serum samples collected from healthy (Ctl.) and colitic WT mice (2% DSS, 10 d) were administered to healthy SIRPα^−/− mice (i.v., 3×, arrows) with or without an anti-IL-17 antibody. FIGS. 1I and 1J are illustrative graphs showing that IL-17 directly induces acute anemia and splenomegaly in SIRPα^−/− mice and Cd47^−/− mice. Healthy mice were given recombinant IL-17 (10 μg/kg, i.v.) on days 1 and 3 (arrows, FIG. 1J); anemia and splenomegaly were analyzed on day 5 (FIG. 1I) or in a time course manner (FIG. 1J). FIG. 1K includes diagrams showing that acute anemia and splenomegaly in SIRPα^−/− and Cd47^−/− mice under zymosan-peritonitis (3×, every other day), IL-6 administration ([…], i.v.), LPS (0.25 mg/kg, i.p.), and CFA (1×, s.c.) administrations. Error bars are ±SEM **P<0.01, ***P<0.001 vs. control or the beginning time point. Data presented in each panel represent at least three independent experiments with n≥4, if applicable.
Hemoglobin assay: To assay blood hemoglobin, 10 μl of whole blood were obtained from the tail vein followed by lysis in 1 ml distilled water. After centrifugation (13,000 rpm, 30 min), the hemoglobin-containing supernatants were collected and measured for the optical density at the wavelength of 540 nm.
Animal inflammation models: To induce peritonitis, mice (6-8 wk, 20-22 g) were intraperitoneally injected with 0.5 mg zymosan A (Sigma) in 0.5 ml sterile PBS followed by euthanasia at 2, 4, 6 and 8 hours. […] The colitic condition was then assessed by observing diarrhea, measuring body weight loss, increases of inflammatory cytokines, the shortage of the large intestine and intestinal tissue analyses (after euthanasia). […]

[3] = system: splenic macrophages, PEMs and BMDMs; experiment: Ex vivo macrophage phagocytosis toward RBCs and other self-cells after activation; type: cell-based, mouse; conditions: PEM; lack of the CD47-SIRPα-mediated inhibition
Description: FIGS. 3A-3H include data related to our experiments assaying macrophage phagocytosis ex vivo. FIGS. 3A and 3B show macrophage phagocytosis of RBCs. Freshly isolated splenic macrophages (MØ) and peritoneal macrophages (PEM) and in vitro-derived BMDM (bone marrow-derived macrophages) were tested for phagocytosis toward CFSE-labeled Cd47^+ or Cd47^− RBCs. […] FIGS. 3F and 3G illustrate LPS and IL-17-activated PEM phagocytosis toward splenocytes (FIG. 3F), B16, and EL4 (FIG. 3G). Error bars are ±SEM. **P<0.01, ***P<0.001 vs. no treatment controls. […] PEM lavaged without (ctl.) or with Brewer thioglycollate (3%, i.p.) elicitation was tested. Error bars are ±SEM. ***P<0.001 vs. control PEM. Data presented in each panel represent at least three independent experiments with n≥4, if applicable.
FIGS. 4A-4E include data related to our experiments on macrophage phagocytic plasticity. FIG. 4A is a panel of illustrative line graphs showing that IL-10 inhibits macrophage phagocytosis toward “self.” PEMs were treated with LPS and activating cytokines along with various concentrations of IL-10 before testing their ability to phagocytose RBCs. FIG. 4B illustrates the phagocytic plasticity of WT red pulp macrophages. […] Treatments of cultured macrophages with LPS and IL-17 re-elicited their phagocytosis toward RBCs. […] Error bars are ±SEM. ***P<0.001 vs. freshly isolated splenic macrophages. FIG. 4D includes microscopic images of RBC phagocytosis by LPS- and IL-17-treated splenic macrophages. […] WT PEMs treated with LPS or IL-17 were further treated with Cd47^+ RBCs or Cd47-AP (10 min, 37° C.) followed by cell lysis, SIRPα immunoprecipitation, and WB detection of SIRPα phosphorylation (SIRPα^pY) and SHP-1 association. Data presented in each panel represent at least three independent experiments with n≥4, if applicable.
Ex vivo macrophage phagocytosis: Mouse spleens were harvested and minced in cold HBSS followed by passing through nylon meshes. The spleen cells in suspensions were collected by centrifugation followed by washing. After lysis of RBC, splenocytes were plated in cell culture dishes in DMEM with 10% FBS and cultured for 2 h followed by removal of non-adherent cells. The adherent cells, ˜70% being macrophages as determined by anti-F4/80 staining, were tested for phagocytosis. For phagocytosis of RBC or other tissue cells, targeted cells were labeled with CFSE prior to addition into the macrophage-containing wells. Macrophages and target cells, at a ratio of 1:5-10 for RBC or 1:1-2 for other cells, were co-incubated for 30 min at 37° C. followed by gently washing. Macrophage phagocytosis of target cells was then analyzed by fluorescence microscopy and/or by FACS. To better recognize macrophages, macrophages in wells were labeled with an anti-F4/80 or an anti-CD11b antibody. Alternatively, the freshly isolated splenocytes in suspension were incubated with CFSE-labeled RBC and other phagocytic targets for 30 min at 37° C. Macrophage phagocytosis was then determined by FACS after labeling macrophages with anti-F4/80. To test phagocytosis of apoptotic cells, B16 cells were irradiated by UV for 150 seconds at 50 J/m^2 strength. Apoptosis was analyzed at 2, 4, 6, 8 and 18 h post UV irradiation by labeling of the cells with anti-phosphatidylserine (PS) antibody (data not shown) or FITC-conjugated annexin V (data not shown). Cells that were confirmed to be apoptotic were trypsinized, labeled with CFSE, and then co-incubated with macrophages for 30 min at 37° C. After gentle washing, phagocytosis was analyzed by fluorescence microscopy and/or FACS. To test phagocytosis of bacteria and the fungal product zymosan, AlexaFluor-conjugated E.coli strain […] (2 μl suspension, ˜2 μg) or zymosan bioparticles (1 μl suspension, ˜2 μg) (both from Invitrogen) were incubated with macrophages for 30 min followed by washing and analyses. Similar procedures were performed to test phagocytosis of macrophages from various sources. […]

Molecule | LPS-induced PEM phagocytosis toward RBCs [1] | anemia and splenomegaly [2] | ability to induce macrophage phagocytosis toward self [3]
CCCCCCC1CCCC1=NNC(N)=S (centres unmarked) [BLT1] | failed to affect |  | 
heparin | failed to affect |  | 
laminarin | failed to affect |  | 
IL-6: recombinant murine cytokine, PeproTech (protein, UniProt P08505 25-211, looked up) Interleukin-6: FPTSQVRRGDFTEDTTPNRPVYTTSQVGGLITHVLWEIVEMRKELCNGNSDCMNNDDALAENNLKLPEIQRNDGCYQTGYNQEICLLKISSGLLEYHSYLEYMKNNLKDNKKDKARVLQRDTETLIHIFNQEVKDLHKIVLPTPISNALLTDKLESQKEWLRTKTIQFILKSLEEFLKVTLRSTRQT |  | induced the same result | have the ability to induce macrophage phagocytosis toward self
